Results on 44 compounds are retold here after US9615576B2, “Pesticidal compositions and processes related thereto” (Dow AgroSciences LLC, priority 2011, dated 2017).

Structures are written as SMILES.

Test [1] has as its system Corn Earworm (CEW) (Helicoverpa zea). Description: Bioassays on Corn Earworm (CEW), 128-well diet tray assay. The format is in vivo. To be noted: 168 h, 50 μg/cm^2 test compound on artificial diet, second instar larvae, 25° C., five to seven days, average of eight wells, read-out: CEW Rating (% mortality). A digest of the protocol: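 Second-instar larvae (one to five per well) placed on artificial diet treated with 50 μg/cm^2 compound in 90:10 acetone-water, dried; eight wells per compound. Held at 25° C, 14:10 light-dark, five to seven days; percent mortality averaged over wells.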

Test [2] deals with Beet Armyworm (BAW) (Spodoptera exigua). In words: Bioassays on Beet Armyworm (BAW), 128-well diet tray assay. The format is in vivo. To be noted: 168 h, 50 μg/cm^2 test compound on artificial diet, second instar larvae, 25° C., five to seven days, average of eight wells, read-out: BAW Rating (% mortality). A digest of the protocol:
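Second-instar larvae (1–5 per well) on artificial diet surface-treated with 50 μg/cm^2 compound applied in 90:10 acetone-water and dried; eight wells per compound. Held 5–7 days at 25° C., 14:10 light-dark. Percent mortality scored per well and averaged over eight wells.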

As a reminder, the mortality is the share of the test organisms that died. With `O=C(NCc1ccc(Cl)nc1)c1ccc(/C=C/C(c2cc(Cl)c(Cl)c(Cl)c2)C(F)(F)F)cc1Br` (stereo not shown) [AC31], the mortality at 50 µg/cm2 in test [1] and in test [2] was 50 to 100% in each case.
As for `O=C(c1ncnn1-c1ccc(/C=C/C(c2cc(Cl)cc(Cl)c2)C(F)(F)F)cc1)C1CC1` (stereo not shown) [DC26], the mortality at 50 µg/cm2 in test [1] and in test [2] was 0% each time.
Take `FC(F)(F)C(/C=C/c1ccc(-n2cncn2)cc1)c1cccc(Cl)c1` (stereo not shown) [DC2]: the mortality at 50 µg/cm2 in test [1] and in test [2] was 0% in each case.
In the case of `Fc1c(Cl)cc(C(/C=C/c2ccc3c(c2)CCC3NCCC(F)(F)F)C(F)(F)F)cc1Cl` (stereo not shown) [BC10, (E)-5-(3-(3,5-dichloro-4-fluorophenyl)-4,4,4-trifluorobut-1-en-1-yl)-N-(3,3,3-trifluoropropyl)-2,3-dihydro-1H-inden-1-amine], the mortality at 50 µg/cm2 in test [1] and in test [2] was 50 to 100% in each case.
With `Cc1cc(/C=C/C(c2cc(Cl)c(F)c(Cl)c2)C(F)(F)F)ccc1C(=O)NCC(=O)NCC(F)(F)F` (stereo not shown) [AC69], the mortality at 50 µg/cm2 in test [1] and in test [2] was 50 to 100% throughout.
Consider `Cc1cc(/C=C/C(c2cc(Cl)cc(Cl)c2)C(F)(F)F)ccc1C(=O)NNc1ccccc1F` (stereo not shown) [AC17], for which the mortality at 50 µg/cm2 in test [1] and in test [2] was 50 to 100% each time.
`Cc1cc(/C=C/C(c2cc(Cl)cc(Cl)c2)C(F)(F)F)ccc1C(=O)NCC1CCOC1` (stereo not shown) [AC19]: the mortality at 50 µg/cm2 in test [1] and in test [2] was 0% throughout.
Take `Cc1cc(/C=C\C(c2cc(Cl)cc(Cl)c2)C(F)(F)F)ccc1C(=O)NCc1ccc(Cl)nc1` (stereo not shown) [AC94]: the mortality at 50 µg/cm2 in test [1] is 0 to 50%; in test [2], 0%.
For `O=C(NCc1ccc(/C=C/C(c2ccc(Cl)c(Cl)c2)C(F)(F)F)cc1Cl)C1CC1` (stereo not shown) [CC17], in that order: 50 to 100% and 50 to 100%.
Taken in the same sequence, the figures for `O=C(Cc1ccc(Cl)nc1)NCc1ccc(/C=C/C(c2cc(Cl)c(Cl)c(Cl)c2)C(F)(F)F)cc1Cl` (stereo not shown) [CC14] were 0% and 50 to 100%.
For `N#Cc1cc(/C=C/C(c2cc(Cl)cc(Cl)c2)C(F)(F)F)ccc1-n1cnc([N+](=O)[O-])n1` (stereo not shown) [DC37], in that order: 50 to 100% and 50 to 100%.
Turning to `Cc1cc(/C=C/C(c2cc(Cl)cc(Cl)c2)C(F)(F)F)ccc1C(=O)N1CCCC1=O` (stereo not shown) [AC8], the values for the mortality at 50 µg/cm2 in test [1] and in test [2] were 0 to 50% and 0%, respectively.
As to `Cc1cc(/C=C/C(c2cc(Cl)c(Cl)c(Cl)c2)C(F)(F)F)ccc1-n1cncn1` (stereo not shown) [DC63], the mortality at 50 µg/cm2 in test [1] and in test [2] was 50 to 100% throughout.
For the compound `O=C(CNC(=O)c1ccc(/C=C/C(c2cc(F)c(Cl)c(F)c2)C(F)(F)F)cc1Br)NCC(F)(F)F` (stereo not shown) [AC102], the values for the mortality at 50 µg/cm2 in test [1] and in test [2] were 50 to 100% and 0%, respectively.
Taken in the same sequence, the figures for `CC(C)(C)OC(=O)NCc1ccc(/C=C/C(c2cc(Cl)c(Cl)c(Cl)c2)C(F)(F)F)cc1Cl` (stereo not shown) [CC39] were 0% and 0%.
Regarding `Cc1cc(/C=C/C(c2cc(Cl)cc(Cl)c2)C(F)(F)F)ccc1C(=O)NCC(=O)N(C)CC(F)(F)F` (stereo not shown) [AC51], the mortality at 50 µg/cm2 in test [1] and in test [2] was 50 to 100% each time.
Turning to `CN1CCC(NC(=O)c2ccc(/C=C/C(c3cc(Cl)c(Cl)c(Cl)c3)C(F)(F)F)cc2Br)CC1` (stereo not shown) [AC106, (E)-2-bromo-N-(1-methylpiperidin-4-yl)-4-(4,4,4-trifluoro-3-(3,4,5-trichlorophenyl)but-1-en-1-yl)benzamide], the mortality at 50 µg/cm2 in test [1] and in test [2] was 50 to 100% in each case.
For `FC(F)(F)C(/C=C/c1ccc(-n2cncn2)cc1)c1cc(Cl)c(Cl)c(Cl)c1` (stereo not shown) [DC18], the mortality at 50 µg/cm2 in test [1] and in test [2] was 50 to 100% each time.
Turning to `O=C(NCC(F)(F)F)c1ccc(/C=C/C(c2cc(Cl)cc(Cl)c2)C(F)(F)F)cc1` (stereo not shown) [AC4], the mortality at 50 µg/cm2 was 50 to 100% in test [1] and 0% in test [2].
Taken in the same sequence, the figures for `O=C(NCC(=S)NCC(F)(F)F)c1ccc(/C=C/C(c2cc(Cl)c(Cl)c(Cl)c2)C(F)(F)F)cc1Br` (stereo not shown) [AC92, (E)-2-bromo-N-(2-thioxo-2-((2,2,2-trifluoroethyl)amino)ethyl)-4-(4,4,4-trifluoro-3-(3,4,5-trichlorophenyl)but-1-en-1-yl)benzamide] were 50 to 100% and 50 to 100%.
For `FC(F)(F)C(/C=C/c1ccc(-n2cncn2)cc1Cl)c1cc(Cl)c(Cl)c(Cl)c1` (stereo not shown) [DC66], in that order: 50 to 100% and 50 to 100%.
For `Cc1cc(/C=C/C(c2cc(Cl)cc(Cl)c2)C(F)(F)F)ccc1C(=O)NCC(=O)NCC(F)(F)F` (stereo not shown) [AC24], in that order: 50 to 100% and 50 to 100%.
`FC(F)(F)c1cc(Cl)cc(C(/C=C/c2ccc(-n3cncn3)cc2)C(F)(F)F)c1` (stereo not shown) [DC19]: the mortality at 50 µg/cm2 in test [1] and in test [2] was 50 to 100% throughout.
`COc1ccc(CNC(=O)c2ccc(/C=C/C(c3cc(Cl)c(Cl)c(Cl)c3)C(F)(F)F)cc2Br)cn1` (stereo not shown) [AC97]: the mortality at 50 µg/cm2 in test [1] and in test [2] was 0% in each case.
`CC(C)(C)C(=O)NCc1ccc(/C=C/C(c2cc(Cl)c(Cl)c(Cl)c2)C(F)(F)F)cc1Cl` (stereo not shown) [CC12]: the mortality at 50 µg/cm2 in test [1] and in test [2] was 0% each time.
As for `O=C(Cn1ncc2cc(/C=C/C(c3cc(Cl)c(F)c(Cl)c3)C(F)(F)F)ccc2c1=O)NCC(F)(F)F` (stereo not shown) [BC14, (E)-2-(6-(3-(3,5-dichloro-4-fluorophenyl)-4,4,4-trifluorobut-1-en-1-yl)-1-oxophthalazin-2(1H)-yl)-N-(2,2,2-trifluoroethyl)acetamide], the mortality at 50 µg/cm2 was 0% in test [1] and 50 to 100% in test [2].
For `FC(F)(F)C(/C=C/c1ccc(-n2cncn2)cc1)c1ccc(Cl)cc1Cl` (stereo not shown) [DC13], in that order: 50 to 100% and 50 to 100%.
Taken in the same sequence, the figures for `Cc1cc(/C=C/C(c2cc(Cl)cc(Cl)c2)C(F)(F)F)ccc1C(=O)NOCc1ccc(Cl)nc1` (stereo not shown) [AC21] were 0% and 0%.
For `COC(=O)C(=O)NCc1ccc(/C=C/C(c2cc(Cl)c(Cl)c(Cl)c2)C(F)(F)F)cc1Cl` (stereo not shown) [CC41, (E)-methyl 2-((2-chloro-4-(4,4,4-trifluoro-3-(3,4,5-trichlorophenyl)but-1-en-1-yl)benzyl)amino)-2-oxoacetate], in that order: 0% and 0%.
For `Cc1ccc(C(/C=C/c2ccc(-n3cncn3)cc2)C(F)(F)F)cc1` (stereo not shown) [DC5], the mortality at 50 µg/cm2 in test [1] and in test [2] was 0% in each case.
With `Cc1cc(/C=C/C(c2cc(Cl)cc(Cl)c2)C(F)(F)F)ccc1C(=O)N(C)Cc1ccc(Cl)nc1` (stereo not shown) [AC117], the mortality at 50 µg/cm2 in test [1] is 0%; in test [2], 50 to 100%.
For `N#Cc1cc(/C=C/C(c2cc(C(F)(F)F)cc(C(F)(F)F)c2)C(F)(F)F)ccc1-n1cncn1` (stereo not shown) [DC30], in that order: 50 to 100% and 50 to 100%.
Taken in the same sequence, the figures for `CCNC(=S)NC1CCc2cc(/C=C/C(c3cc(Cl)c(Cl)c(Cl)c3)C(F)(F)F)ccc21` (stereo not shown) [BC2] were 50 to 100% and 50 to 100%.
For `FC(F)(F)C(/C=C/c1ccc(-n2cncn2)c(-c2ccncc2)c1)c1cc(Cl)cc(Cl)c1` (stereo not shown) [DC64], in that order: 0% and 0%.
With `N#Cc1cc(/C=C/C(c2ccc(Cl)c(Cl)c2)C(F)(F)F)ccc1-n1cncn1` (stereo not shown) [DC28], the mortality at 50 µg/cm2 in test [1] and in test [2] was 50 to 100% each time.
In the case of `O=C(NCc1ccc(/C=C/C(c2cc(Cl)c(Cl)c(Cl)c2)C(F)(F)F)cc1C(F)(F)F)c1cccnc1` (stereo not shown) [CC23], the mortality at 50 µg/cm2 in test [1] and in test [2] was 50 to 100% throughout.
As to `O=C(O)c1cc(/C=C/C(c2cc(Cl)cc(Cl)c2)C(F)(F)F)ccc1-n1cncn1` (stereo not shown) [DC61, (E)-5-(3-(3,5-dichlorophenyl)-4,4,4-trifluorobut-1-en-1-yl)-2-(1H-1,2,4-triazol-1-yl)benzoic acid], the mortality at 50 µg/cm2 in test [1] and in test [2] was 0% throughout.
On to `O=C(NCc1ccc(Cl)nc1)c1ccc(/C=C/C(c2cc(Cl)c(Cl)c(Cl)c2)C(F)(F)F)cc1Cl` (stereo not shown) [AC28], for which the mortality at 50 µg/cm2 in test [1] and in test [2] was 50 to 100% throughout.
`Cc1cc(-n2cncn2)ccc1/C=C/C(c1cc(Cl)cc(Cl)c1)C(F)(F)F` (stereo not shown) [DC65]: the mortality at 50 µg/cm2 in test [1] is 50 to 100%; in test [2] it was 0%.
Taken in the same sequence, the figures for `Cc1ncn(-c2ccc(/C=C/C(c3cc(Cl)cc(Cl)c3)C(F)(F)F)cc2C#N)n1` (stereo not shown) [DC36] were 0% and 0%.
Taken in the same sequence, the figures for `O=C(NC1CS(=O)(=O)C1)c1ccc(/C=C/C(c2cc(Cl)c(Cl)c(Cl)c2)C(F)(F)F)cc1Br` (stereo not shown) [AC33] were 50 to 100% and 50 to 100%.
For the compound `O=C(NCc1ccc(/C=C/C(c2cc(Cl)c(Cl)c(Cl)c2)C(F)(F)F)cc1Br)C1CC1` (stereo not shown) [CC26], the mortality at 50 µg/cm2 was 0% in test [1] and 50 to 100% in test [2].
Regarding `O=C(CNC(=O)c1ccc(/C=C/C(c2cc(Cl)c(F)c(Cl)c2)C(F)(F)F)cc1F)NCC(F)(F)F` (stereo not shown) [AC68], the mortality at 50 µg/cm2 in test [1] and in test [2] was 50 to 100% in each case.
`CC(=O)Nc1ncn(-c2ccc(/C=C/C(c3cc(Cl)cc(Cl)c3)C(F)(F)F)cc2C#N)n1` (stereo not shown) [DC39]: the mortality at 50 µg/cm2 in test [1] and in test [2] was 50 to 100% throughout.
